For 2 compounds, IC50 and ED50 results are on record in patent publication US5240941A, “Thioxo quinoline compounds, composition and method of use” (ICI Pharma, priority 1990, dated 1993).

For test [1], the system named is 5-LO. As to the kind of experiment: Test b) heparinised human blood, A23187 challenge, LTB4 radioimmunoassay. The format is cell-based. As for the experimental part:
b) An in vitro assay system involving incubating a test compound with heparinised human blood, prior to challenge with the calcium ionophore A23187 and then indirectly measuring the inhibitory effects on 5-LO by assaying the amount of LTB4 using specific radioimmunoassays described by Carey and Forder (F. Carey and R. A. Forder, Prostaglandins Leukotrienes Med., 1986, 22, 57; Prostaglandins,1984, 28, 666; Brit. J. Pharmacol. 1985, 84, 34P) which involve the use of a protein-LTB4 conjugate produced using the procedure of Young et alia (Prostaglandins, 1983, 26(4), 605-613). The effects of a test compound on the enzyme cyclooxygenase (which is involved in the alternative metabolic pathway for arachidonic acid and gives rise to prostaglandins, thromboxanes and related metabolites) may be measured at the same time using the specific radioimmunoassay for thromboxane B2 (TxB2) described by Carey and Forder (see above). This test provides an indication of the effects of a test compound against 5-LO and also cyclooxygenase in the presence of blood cells and proteins. It permits the selectivity of the inhibitory effect on 5-LO or cyclooxygenase to be assessed.

In test [2] the test system is 5-LO. As to the kind of experiment: Test g) zymosan-induced LTB4 liberation in air pouch of male rats. Format: in vivo. Particulars: 3 h; test g), rat air pouch, oral. The procedure:
g) An in vivo system involving measuring the effects of a test compound administered orally against the liberation of LTB4 induced by zymosan within an air pouch generated within the subcutaneous tissue of the back of male rats. The rats are anaesthetised and air pouches are formed by the injection of sterile air (20 ml). A further injection of air (10 ml) is similarly given after 3 days. At 6 days after the initial air injection the test compound is administered (usually orally as the suspension produced when a solution of the test compound in dimethylsulphoxide is added to hydroxypropylmethylcellulose), followed by the intrapouch injection of zymosan (1 ml of a 1% suspension in physiological saline). After 3 hours the rats are killed, the air pouches are lavaged with physiological saline, and the specific radioimmunoassay described above is used to assay LTB4 in the washings. This test provides an indication of inhibitory effects against 5-LO in an inflammatory milieu.

Turning to `COC1(c2cc(F)cc(OCc3ccc4c(c3)CCC(=S)N4C)c2)CCOCC1` [4-[5-fluoro-3-(1-methyl-2-thioxo-1,2,3,4-tetrahydroquinolin-6-ylmethoxy)phenyl]-4-methoxytetrahydropyran], the IC50 in test [1] worked out at 100 nM. Further, the ED50 in test [2] was 1.5 mg/kg.
`COC1(c2cc(F)cc(Sc3ccc4c(c3)CCC(=S)N4C)c2)CCOCC1` [4-[5-fluoro-3-(1-methyl-2-thioxo-1,2,3,4-tetrahydroquinolin-6-ylthio)phenyl]-4-methoxytetrahydropyran]: inhibition in test [1] was half-maximal at 50 nM (IC50). In test [2], the ED50 stood at 0.5 mg/kg.

Usually IC50 stands for the concentration that gives 50% inhibition. A higher IC50 goes with weaker potency. Broadly, the ED50 is the dose that gives a 50% effect, or the effect in half of the subjects.
